Assay results reported in the supplement of paper PMC10307832.

Assays:
Assay in all cases: relative viability (nuclei count vs DMSO), 5 days (fraction); higher = more cells survive
Ibrutinib + Tozasertib = compound: C=CC(=O)N1CCC[C@@H](n2nc(-c3ccc(Oc4ccccc4)cc3)c3c(N)ncnc32)C1 [Ibrutinib] + Cc1cc(Nc2cc(N3CCN(C)CC3)nc(Sc3ccc(NC(=O)C4CC4)cc3)n2)n[nH]1 [Tozasertib] (partner 0.1 µM)
In short: (§1)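 Relative viability was taken as the ratio of nuclei in treated wells to nuclei in vehicle wells. Lung cancer cell lines in 1536-well plates received compounds by pin tool one day after seeding, either one drug alone or a fixed anchor-drug dose plus five library-drug doses (not always all listed) in √10 steps. Nuclei were counted on 4× images after 5 days of treatment, and values are medians of duplicate plates.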

BMX-IN-1 + Trametinib = compound: C=CC(=O)Nc1cc(-n2c(=O)ccc3cnc4ccc(-c5ccc(NS(C)(=O)=O)cc5)cc4c32)ccc1C [BMX-IN-1] + CC(=O)Nc1cccc(-n2c(=O)n(C3CC3)c(=O)c3c(Nc4ccc(I)cc4F)n(C)c(=O)c(C)c32)c1 [Trametinib] (partner 0.02 µM)
In short: as §1

BMX-IN-1 + Pemetrexed = compound: C=CC(=O)Nc1cc(-n2c(=O)ccc3cnc4ccc(-c5ccc(NS(C)(=O)=O)cc5)cc4c32)ccc1C [BMX-IN-1] + Nc1nc2[nH]cc(CCc3ccc(C(=O)N[C@@H](CCC(=O)O)C(=O)O)cc3)c2c(=O)[nH]1 [Pemetrexed] (partner 0.2 µM)
In short: as §1

PAC-1 + Dasatinib = compound: C=CCc1cccc(/C=N/NC(=O)CN2CCN(Cc3ccccc3)CC2)c1O [PAC-1] + Cc1nc(Nc2ncc(C(=O)Nc3c(C)cccc3Cl)s2)cc(N2CCN(CCO)CC2)n1 [Dasatinib] (partner 0.075 µM)
In short: as §1

Cell Line	relative viability (Ibrutinib + Tozasertib; first compound 0.005 µM)	relative viability (Ibrutinib + Tozasertib; first compound 0.01581 µM)	relative viability (Ibrutinib + Tozasertib; first compound 0.05 µM)	relative viability (Ibrutinib + Tozasertib; first compound 0.1581 µM)	relative viability (Ibrutinib + Tozasertib; first compound 0.5 µM)	relative viability (BMX-IN-1 + Trametinib; first compound 0.02 µM)	relative viability (BMX-IN-1 + Trametinib; first compound 0.2 µM)	relative viability (BMX-IN-1 + Trametinib; first compound 0.6325 µM)	relative viability (BMX-IN-1 + Trametinib; first compound 2 µM)	relative viability (BMX-IN-1 + Pemetrexed; first compound 0.02 µM)	relative viability (BMX-IN-1 + Pemetrexed; first compound 0.2 µM)	relative viability (BMX-IN-1 + Pemetrexed; first compound 0.6325 µM)	relative viability (BMX-IN-1 + Pemetrexed; first compound 2 µM)	relative viability (PAC-1 + Dasatinib; first compound 0.02 µM)	relative viability (PAC-1 + Dasatinib; first compound 0.06325 µM)	relative viability (PAC-1 + Dasatinib; first compound 0.2 µM)	relative viability (PAC-1 + Dasatinib; first compound 2 µM)
201T	0.984	0.916	0.971	0.959	0.849	0.703	0.733	0.744	0.694	0.326	0.342	0.339	0.351	0.571	0.595	0.589	0.58
A-427	0.22	0.185	0.281	0.23	0.212	0.691	0.727	0.79	0.722	1.01	1.05	1.11	0.992	0.77	0.665	0.666	0.697
ABC-1	0.151	0.149	0.159	0.198	0.187									0.501	0.495	0.541	0.484
BEN		0.459	0.471	0.561	0.536	1.15	0.909	0.96	1.03	0.701	0.768	0.866	0.708	0.272	0.366	0.318	0.327
CAL-12T	0.324	0.309	0.268	0.365	0.151	0.342	0.318	0.31	0.36	1.27	1.36	1.37	1.15	0.288	0.393	0.459	0.404
COR-L23	0.209	0.214	0.247	0.227	0.181	0.71	0.695	0.623	0.662	0.188	0.204	0.206	0.165	0.472	0.48	0.453	0.506
COR-L 105	0.35	0.337	0.339	0.373	0.303	0.427	0.444	0.422	0.403	1.2	1.07	1.3	1.04	0.361	0.365	0.34	0.412
ChaGo-K-1	0.228	0.218	0.212	0.232	0.22	0.735	0.986	0.891	0.91	0.238	0.305	0.25	0.39	0.653	0.647	0.534	0.619
EKVX	0.427	0.332	0.4	0.426	0.269	0.308	0.39	0.375	0.369	0.56	0.448	0.464	0.452	0.587	0.606	0.569	0.515
EMC-BAC-2	0.303	0.295	0.31	0.325	0.286	0.827	0.906	0.96	1.04	0.448	0.486	0.466	0.44	0.388	0.303	0.346	0.326
EPLC-272H	0.171	0.171	0.25	0.126	0.193	0.27	0.257	0.311	0.318	0.304	0.278	0.235	0.316	0.447	0.365	0.387	0.268
H3255	0.729	0.615	0.581	0.672	0.312	0.725	0.624	0.599	0.672	0.52	0.583	0.686	0.563	0.361	0.288	0.284	0.33
HARA	0.0994	0.117	0.0863	0.0992	0.096	0.907	0.449	0.492	0.654	0.257	0.271	0.282	0.255	0.336	0.251	0.26	0.26
HCC-15	0.464	0.413	0.563	0.396	0.357	0.268	0.411	0.388	0.396	0.2	0.218	0.192	0.218	0.631	0.675	0.606	0.619
HCC-44	1.1	0.945	0.734		0.998	1.11	1.08	1.14	1.03	0.727	0.663	0.625	0.678				
HCC-78	0.577	0.327	0.434	0.494	0.343	0.801	0.967	0.717	0.896	0.971	0.989	0.935	0.913	0.335	0.331	0.404	0.394
HCC-366	0.127	0.116	0.107	0.118	0.0964	0.36	0.352	0.376	0.361	0.163	0.183	0.165	0.202	0.618	0.558	0.617	0.733
HCC-827	0.396	0.39	0.513	0.437	0.224	0.558	0.537	0.475	0.518	0.237	0.297	0.287	0.235	0.277	0.325	0.297	0.293
HOP-62	0.447	0.408	0.467	0.403	0.473	0.44	0.379	0.366	0.341	0.267	0.364	0.342	0.223	0.665	0.68	0.623	0.641
